{"source": "paper PMC10678405", "about": "“2126. Safety, Tolerability, and Pharmacokinetics (PK) in Healthy Participants Following Single Dose Administration of Zosurabalpin, a Novel Pathogen-Specific Antibiotic for the Treatment of Serious Acinetobacter Infections” (Open Forum Infectious Diseases, 2023)", "key": {"[1]": {"settings": "single IV dose; for dose proportionality of plasma exposures (Cmax and AUCinf): healthy participants", "from_the_text": "(§1) Methods The entry-into-human study (BP41732) was a double-blind, placebo-controlled, randomized, single-and multiple ascending dose study in healthy participants. In Part 1 (SAD) of Study BP41732, participants were randomized 3:1 to receive IV zosurabalpin or placebo in sequential single ascending dose cohorts. The mass balance study (BP43532) was a non-randomized, non-controlled, open-label, single IV dose study in healthy male participants. […] Disclosures Andreas Guenther, PhD, F. Hoffmann-La Roche Ltd: Employee Amanda Messer, BPharm, Roche Products Ltd: Employee Mylène Giraudon, PharmD, F. Hoffmann-La Roche Ltd: Employee Katie Patel, MSc, Roche Products Limited: Employer|Roche Products Limited: Stocks/Bonds Erik J. Deurloo, MSc, F. Hoffmann-La Roche Ltd: Salary|F. Hoffmann-La Roche Ltd: Stocks/Bonds Michael Lobritz, MD, PhD, Roche: full time employee|Roche: full time employee"}, "healthy participants": {"system": "healthy participants", "from_the_text": "as §1"}, "[2]": {"settings": "healthy male participants, study BP43532, average"}, "[3]": {"settings": "healthy participants, single IV dose 10 mg to 2000 mg"}}, "note": "Where two headings read alike, the source gives them in different places.", "data": [{"smiles": "CN1C(=O)[C@H](CCCCN)NC(=O)[C@H](CCCN)NCc2cccnc2Sc2cccc(-c3ccc(C(=O)O)cc3)c2CNC(=O)[C@@H]1Cc1c[nH]c2ccccc12", "note": "[zosurabalpin, Zosurabalpin]", "values": [{"measurement": "total [14C]-radioactivity recovered in feces, % of the administered dose", "setting": "[1]; [2]", "value": "48.0 % of the administered dose"}, {"measurement": "total [14C]-radioactivity recovered in urine, % of the administered dose", "setting": "[1]; [2]", "value": "52.6 % of the administered dose"}, {"measurement": "dose proportionality of plasma exposures (Cmax and AUCinf)", "setting": "[1]; above 1000 mg up to 2000 mg", "value": "more than dose-proportionally"}, {"measurement": "dose proportionality of plasma exposures (Cmax and AUCinf)", "setting": "[1]; up to 1000 mg", "value": "increased approximately dose-proportionally"}, {"measurement": "treatment-related infusion-related reactions (IRRs), participants affected / participants dosed", "setting": "healthy participants; healthy male and female participants, single IV dose 10 mg to 2000 mg, studies BP41732 Part 1 (SAD) and BP43532, preliminary data", "value": "9/64"}, {"measurement": "changes in laboratory values, ECGs or vital signs compared to placebo", "setting": "healthy participants; [3]", "value": "did not show any clinically significant changes"}, {"measurement": "dose dependence of IRR occurrence", "setting": "healthy participants; [3]", "value": "appeared to be dose-dependent"}, {"measurement": "overall safety and tolerability", "setting": "healthy participants; healthy participants, single IV doses of 10 mg to 2000 mg", "value": "safe and overall well tolerated"}]}]}
